{"source": "patent US20230204569A1", "about": "“ANALYSIS DEVICE” (INCYTON GMBH, priority 2020, published 2023)", "key": {"[1]": {"test_system": "L929 mouse fibroblast cells", "assay": "Toxicology assay: OCR, ECAR and morphology under SLS", "type": "cell-based", "description": "L929 mouse fibroblast cells were investigated under the influence of the reference toxicant sodium lauryl sulfate (SLS). The test settings included 12 h of pretreatment and 12 h of treatment with different concentrations of SLS. Throughout the assay, oxygen consumption and extracellular acidification, as well as morphology based on regular microscope images, were recorded."}, "[2]": {"test_system": "Mouse fibroblast L929 cells", "experimental": "A mitochondrial stress test was performed in a device of the present invention. Mouse fibroblast L929 cells were cultivated in the wells of a micro-titer plate at 37° C. and provided with fresh media in time intervals of 20 min.\nA measurement cycle involved addition of following compounds at the indicated time points:\nt=60 min: Addition of 1 μM oligomycin A\nt=140 min: Addition of 1 μM antimycin A and 1 μM rotenone"}, "[3]": {"details": "77.8 μg/ml SLS, first 3 h after SLS addition"}}}
{"smiles": "CCCCCCCCCCCCOS(=O)(=O)[O-].[Na+]", "note": "[SLS, sodium lauryl sulfate]", "values": [{"measurement": "outcome after continuation of the treatment (12 h treatment)", "setting": "[1]; 77.8 μg/ml SLS, continued treatment", "value": "cell death and a drop in all metabolic values"}, {"measurement": "acidification (ECAR)", "setting": "[1]; [3]", "value": "increases"}, {"measurement": "oxygen uptake (OCR)", "setting": "[1]; [3]", "value": "reduced"}, {"measurement": "OCRs and ECARs dose and time dependence", "setting": "[1]; 77.8 μg/ml and 778 μg/ml SLS", "value": "clear dose- and time-dependent reaction"}]}
{"smiles": "N#CC(C#N)=NNc1ccc(OC(F)(F)F)cc1", "note": "[FCCP, carbonyl cyanide p-(trifluoromethoxy) phenylhydrazone]", "values": [{"measurement": "Maximum respiration (OCR) as % of the basal respiration", "setting": "[2]; 0.13 μM and 0.25 μM FCCP added at t=100 min after 1 μM oligomycin A", "value": 131, "unit": "%"}, {"measurement": "reserve capacity", "setting": "[2]; maximum respiration under FCCP minus basal respiration", "value": 31, "unit": "%"}]}
